≈ marks a conversion by molar mass, not a printed value. Blank lines part the entries; values can stand above or below the molecule they belong to.
Experiments:
[1] = tested on: Klebsiella isolates; assay: Broth microdilution MIC (MICBMD) of Klebsiella isolates; format: cell-based, Klebsiella pneumoniae, Klebsiella oxytoca; conditions: limited clinical screen concentrations
Protocol: (§1) An aliquot of bacterial suspension was added to 50 mL centrifuge tubes (Corning, N.Y.) containing 9 mL of pre-warmed (37° C.) filtered MHB to produce a final density of 5×10^5-1×10^6 bacteria per mL. This suspension was incubated at 37° C. with shaking at 100 RPM for 30 minutes to obtain an actively dividing culture. An aliquot of antibiotic working solution from the previously described dilution series (appropriate to the concentration tested) was then added to each tube before a further 30-minute incubation with shaking, during which time a microbroth dilution (MBD) plate was prepared for overnight incubation at 37° C. as previously described in Clinical and Laboratory Standards Institute (2015) Performance Standards for Antimicrobial Susceptibility Testing: Informational Supplement. CLSI document M100-S25. Clinical and Laboratory Standards Institute, 950, West Valley Road, Suite 2500, Wayne, Pa., 19087, USA.
FIG. 2 outlines the work flow as exemplified herein. In brief, an isolate was retrieved from cryopreservation, plated onto blood agar to ensure purity, and inoculated into trypticase soy broth (TSB, described above) overnight to simulate biological fluids. A 1 mL aliquot of this overnight suspension was inoculated into Mueller-Hinton broth (MHB) [comprising about 300.0 g beef extract (dehydrated infusion from), about 17.5 g casein hydrolysate, about 1.5 g starch, reconstituted in about 1 L of water, pH 7.3±0.1 as measured and kept at 25° C.] and incubated at 37° C. to ensure bacteria were actively dividing. One aliquot was subjected to traditional microbroth dilution (MBD) susceptibility testing.

[2] = tested on: Klebsiella isolates; assay: Acoustic flow cytometry-assisted susceptibility test (FAST), MICFAST and S/NS, Klebsiella isolates; format: cell-based, Klebsiella pneumoniae, Klebsiella oxytoca; conditions: limited clinical screen concentrations
Protocol: A 1 mL aliquot of bacterial suspension was centrifuged, washed and resuspended in 1 mL filtered Hank's Buffered Salt Solution (HBSS; comprising about 0.137 M NaCl, about 5.4 mM KCl, about 0.25 mM Na2HPO4, about 0.1 g Glucose, about 0.44 mM KH2PO4, 1.3 mM CaCl2), 1.0 mM MgSO4, about 1.3 mM CaCl2), 1.0 mM MgSO4, and about 4.2 mM NaHCO3) and diluted in series (e.g., in a 1:10 serial dilution) to a final 1:1000 dilution.
One μL (microliter) of SYTO 9 stain (e.g., ThermoFisher Scientific) working stock solution was added to the final dilution at a final concentration of 5 μM and incubated for 5 minutes before counting bacterial events by acoustic flow cytometer (AFC) (Attune, ThermoFisher, Eugene, Oreg., USA), which was used to prepare a standardised inoculum density for susceptibility testing.
as §1
One millilitre of bacterial suspension from each antibiotic concentration was harvested by centrifugation at 7800×g for 5 minutes, washed and diluted 1:10 in filtered HBSS in a light-impermeable microcentrifuge tube, then stained with SYTO 9 stain at a final concentration of 5 μM, and incubated for 5 min before AFC sampling. Hoechst 33342 dye (NucBlue, Thermo Fisher Scientific, Eugene, Oreg., USA) and a SYTO 9/propidium iodide (PI) combination (Thermo Fisher Scientific) were used in a series of replicate experiments.
The acoustic flow cytometer employed was Attune acoustic flow cytometer (Thermo Fisher Scientific), having installed therein a 488 nm blue laser with a 530/30 nm filter on the photomultiplier tube for measuring fluorescence of cells assayed. Alternatively, the Attune NxT acoustic flow cytometer (Thermo Fisher Scientific) can be employed. AFC was calibrated at the beginning of each acquisition session using fluorescently labelled size calibration beads, in accordance with the manufacturer's instructions (ThermoFisher Scientific). The AFC settings were as follows: Forward Scatter (FSC) voltage 3100, FSC threshold 4×1000 AND, blue laser 1 (BL1—530/30 nm) voltage 1900, BL1 threshold 1×1000 AND, high sensitivity, flow rate 25 μL/minute, and an acquisition volume of 125 μL. Acquisition was halted after either collection of 20,000 events across all gates, or after 3 minutes, with each sample acquired in technical triplicate.
Collected data was exported in the FCS 3.0 file format and analysed in Flow v10.0 (FlowJo LLC, Ashland, Oreg., USA) by a single user, blinded to the MIC results by BMD (MICBMD).
Subsequent to quantitative MICFAST determination, the acoustic flow cytometer data were re-analysed in silico to produce a limited sub-set for qualitative susceptibility determination. The six antibiotic dilutions (0 mg/L, 0.25 mg/L, 1 mg/L, 2 mg/L, 4 mg/L and 16 mg/L) most relevant to qualitative susceptibility assessment were used. In silico analysis was restricted to the first technical triplicate of each recorded sample. Gating strategies remained consistent, with the addition of a gate restricting analysis to only those events recorded in the first 60 seconds of acquisition.

[3] = tested on: Staphylococcus aureus; assay: Broth microdilution (BMD) MIC of Staphylococcus aureus isolates; format: cell-based
Text: The acoustic flow cytometry assisted method of the present invention was employed essentially as described in the previous working examples to determine susceptibility of Staphylococcus aureus to both cefoxitin and oxacillin. Susceptibility classification into S/NS and quantitative MIC values obtained using the acoustic flow cytometry assisted method were compared to results obtained using the conventional broth microdilution (BMD) method. Results are shown in Table 4 (Panels A and B) below and in FIGS. 9-12.

[4] = tested on: Staphylococcus aureus; assay: Acoustic flow cytometry-assisted susceptibility test (FAST) of Staphylococcus aureus isolates; format: cell-based; design: MIC dilution at which susceptibility-associated signature is observed by AFC: unit not given beside the values
Protocol: The material and methods utilized are briefly outlined herein below. The method used was similar to that outlined in the earlier examples albeit adjusted to allow for 3 hour incubation of Staphylococcus aureus to account for longer doubling times of Staphylococcus aureus relative to K. pneumoniae used in the previous examples.
Events were acquired by forward scatter and BL1 (515 nm-545 nm) using the Attune with voltages and thresholding set as follows: Forward Scatter Voltage: 3050; Forward Scatter Threshold: 3×1000 AND; Side Scatter Voltage: 2950; Side Scatter Threshold: IGNORE; BL1 Voltage: 1500; BL1 Threshold: 1×1000 AND.
Nine mL of MHB was aliquoted into twelve, 50 mL Falcon tubes. Each tube was labelled with the required final test concentration of antibiotic. […] Tubes were transferred to a 35° C. incubator to pre-warm.
One 1 mL of the overnight bacterial suspension was transferred into a 1.5 mL microcentrifuge tube and centrifuge at 7,800×g for about 5 minutes. The supernatant was discarded, and the pellet re-suspended in 1 mL of 0.1 μm filtered HBSS. This step was optionally repeat.
About 900 μL of HBSS was dispended into three 1.5 mL tubes—two clear tubes and one amber tube. About 100 μL of the bacterial suspension was inoculated into the first tube (clear) and serially dilute to reach 1:1000 by the third tube (amber). About 1 μl of SYTO 9 (5 μM final concentration) was added to the third tube. The dye was incubated, protected from light, for at least 5 minutes (individual sample types were optionally required with longer incubations) and then the Stained Control on the Attune acoustic flow cytometer instrument was read
The event density (events/μL) from your stained control aliquots was used to calculate the inoculum volume required to produce a 5.5×10^5 bacteria mL-1 in 10 mL of MHB. For example, (400 events/A)/(10 mL×550000)=7.3 μL, rounded up to the closest 10 μL.
The required volume of bacterial suspension was added from the overnight culture into each 50 ml tube with 9 ml of preheated MHB. Optionally incubate with shaking and protected from light, at 100 RPM at 35° C. for 60 minutes.
MHB (0.1 μm filtered) was used to dilute the antibiotics in this preparation. About one aliquot of antibiotic was removed from the −20° C. freezer and equilibrated to room temperature by ambient heat exchange, and diluted to reach a range of working stock concentrations that were are ten times the desired test concentrations.
Once the 60-minute incubation of bacterial suspension was complete, about 1 mL of 10× antibiotic stocks were added to tubes containing bacterial suspensions to reach final desired test concentrations (1 ml antibiotic and total volume 10 ml). The 50 mL tubes were returned to the incubator and incubated, by shaking at 100 RPM at 35° C., for a further 3 hours.
After 3 hours, about 1 mL suspension was harvested from each tube and transferred to a 1.5 mL clear microcentrifuge tube (marked with the corresponding antibiotic concentration), then centrifuge at 7,800×g for 5 minutes. The supernatant discarded and the pellet resuspended in 1 mL of 0.1 μm filtered HBSS. This wash step was optionally repeated.
Using the computer connected to the Attune, new samples were created ready for the collection of data. That the following parameters were set: Sensitivity: High Sensitivity; Flow Rate: 25 μL/minute; Acquisition Volume: 125 μL; Events Collected: No less than 20,000 from all gates, Time: 1 minute.
About 899 μL HBSS was dispensed into one 1.5 mL amber tube per sample. About 100 μL of suspension per tube was added to achieve a 1 in 10 dilution. About 1 μl of SYTO 9 was added to each tube and the tube vortexed for no more than 2 seconds (over vortexing can lead to bacterial clustering and/or attachment to tube walls).
Samples were placed on the SIP and acquired, in technical triplicate, as per the parameters outlined above. […]

[5] = K. pneumoniae ATCC 700603 (carbapenem susceptible control)
[6] = K. pneumoniae ATCC BAA1705 (carbapenem resistant control)
[7] = S. aureus isolate ATCC 29213, MSSA
[8] = S. aureus isolate W0096111, MSSA
[9] = S. aureus isolate W0226111, MSSA
[10] = S. aureus isolate W0236111, MSSA
[11] = S. aureus isolate W0296111, MSSA
[12] = S. aureus isolate W0816111, MSSA
[13] = S. aureus isolate W0866111, MRSA
[14] = S. aureus isolate W6496111, MSSA
[15] = S. aureus isolate W9196111, MSSA
[16] = S. aureus isolate W9346111, MRSA
[17] = S. aureus isolate W . . . 6111, MRSA
[18] = S. aureus isolate WACC 98, MRSA

SMILES: C[C@@H](O)[C@H]1C(=O)N2C(C(=O)O)=C(S[C@@H]3CN[C@H](C(=O)Nc4cccc(C(=O)O)c4)C3)[C@H](C)[C@H]12 [Analytical Ertapenem, ertapenem]
MICBMD [1, 5]: ≤0.25
MICBMD [1, 6]: >16
MICFAST [2, 5]: ≤0.25
MICFAST [2, 6]: >16

SMILES: C[C@@H](O)[C@H]1C(=O)N2C(C(=O)O)=C(SCCN=CN)C[C@H]12 [Analytical Imipenem, imipenem]
MICBMD [1, 5]: 2
MICBMD [1, 6]: >16
MICFAST [2, 5]: 1
MICFAST [2, 6]: >16

MIC (BMD) [3, 7]: 4 µg/mL
MIC (BMD) [3, 8]: 2 µg/mL
MIC (BMD) [3, 9]: 2 µg/mL
MIC (BMD) [3, 10]: 2 µg/mL
MIC (BMD) [3, 11]: 4 µg/mL
MIC (BMD) [3, 12]: 2 µg/mL
MIC (BMD) [3, 13]: 32 µg/mL
MIC (BMD) [3, 14]: 4 µg/mL
MIC (BMD) [3, 15]: 2 µg/mL
MIC (BMD) [3, 16]: 32 µg/mL
MIC (BMD) [3, 17]: 16 µg/mL
MIC (BMD) [3, 18]: 128 µg/mL
MIC dilution at which susceptibility-associated signature is observed by AFC ([4]; S. aureus ATCC 29213): 4
MIC dilution at which susceptibility-associated signature is observed by AFC ([4]; S. aureus WACC 98): 128
MIC (FAST) [4, 7]: 2 µg/mL (≈ 4.68 µM)
MIC (FAST) [4, 8]: 4 µg/mL (≈ 9.36 µM)
MIC (FAST) [4, 9]: 2 µg/mL (≈ 4.68 µM)
MIC (FAST) [4, 10]: 4 µg/mL (≈ 9.36 µM)
MIC (FAST) [4, 11]: 4 µg/mL (≈ 9.36 µM)
MIC (FAST) [4, 12]: 2 µg/mL (≈ 4.68 µM)
MIC (FAST) [4, 13]: 16 µg/mL (≈ 37.4 µM)
MIC (FAST) [4, 14]: 4 µg/mL (≈ 9.36 µM)
MIC (FAST) [4, 15]: 4 µg/mL (≈ 9.36 µM)
MIC (FAST) [4, 16]: 32 µg/mL (≈ 74.9 µM)
MIC (FAST) [4, 17]: 16 µg/mL (≈ 37.4 µM)
MIC (FAST) [4, 18]: 64 µg/mL (≈ 150 µM)
SMILES: CO[C@@]1(NC(=O)Cc2cccs2)C(=O)N2C(C(=O)O)=C(COC(N)=O)CS[C@@H]21 [Cefoxitin, cefoxitin]

From patent US20210292807A1, “METHOD FOR TESTING ANTIMICROBIAL SUSCEPTIBILITY” (priority 2017, published 2021)
